What was measured:
Type in all cases: cell-based, mouse
[1] = tested on: ICOS-activated Th17 cells; assay: Cytokine production of ICOS-stimulated TRP-1 Th17 cells expanded with inhibitors (intracellular FACS); conditions: 8 days of expansion, vs un-treated Th17 cells
Description: (§1) Expansion of Th17 cells with Wnt/β-catenin and PI3K inhibitors in vitro: TRP-1 splenocytes were activated with irradiated (10Gy) C57BL/6 splenocytes pulsed with TRP-1 peptide (1 μM) added at a 5:1 ratio in 24-well plates (1 mL media containing 1.5×10^6 cells/well). TRP-1 splenocytes were co-stimulated with soluble ICOS agonist (Clone 398.4A, BioLegend) and polarized toward Th17 phenotype as describe above. For in vitro expansion from day 0 of culture 10 μM Ly294002 (Cayman Chemical) or 10 μM CAL-101 (Selleckchem) and/or 60 μM indomethacin (Sigma-Aldrich) was added. Also dimethylosulfoxide 0.01% (Sigma-Aldrich) was added as a control. Th17 cultures were also supplemented with hrIL-2 (100 IU/mL) and rmIL-23 ([…]; R&D). Medium, including cytokines and inhibitors was refreshed every 2-3 days.
Surface staining of Th17 cells was performed with anti-CD4-APCCy7, anti-Vβ14-FITC (BD Biosciences) anti-CD62L-APC, anti-CD44-PerCPCy5.5, anti-CCR6-PE, anti-CD69-PECy7, anti-CCR7-PE, anti-CD27-PE, anti-CD28-PerCPCy5.5, anti-ICOS-PE and anti-CD25-PECy7/FITC (BioLegend) and viability stain (Invitrogen) on day 8. For all intracellular staining of cytokines (anti-IL-17 PerCPCy5.5, anti-IFN-γ-v450, anti-IL-2-FITC, anti-IL-21-APC, anti-IL-22-PE, anti-TNF-α-FITC; BioLegend) and transcription factors (anti-RORγt-APC, anti-cMaf-PerCPCy5.5, anti-STAT-3-PE, anti-FoxP3-FITC/PE, anti-T-bet-v450; eBiosciences), cells were stimulated for 4-5 h with 50 ng/mL PMA and 750 ng/mL ionomycin (Sigma-Aldrich). Additional antibodies used include: CD127-PECy7 clone A019D5, CD25-APCCy7 clone BC96, CD4-APCCy7 OKT4, CD45RO-APC clone UCHL1, CD62L-FITC clone DREG-56, CD8-PerCPCy5.5 clone SKI, TIM3-PE clone F38-2E2 (biolegend); CCR7-PECy7 clone CCR7, CD8-V450 clone RPA-T8, PD1-FITC clone M1H4, (BD Biosciences). Antibodies used for mouse cell analysis: CD127-PE/V450 clone A7R34, CD25-FITC clone 7D4, CD44-PerCPCy5.5/FITC clone IM7, CD69-PECy7 clone HI.2F3, CD8-PerCPCy5.5 clone 53-6.7, CD8-PECy7 clone YTS156.7.7, PD1-PerCPCy5.5 clone 29F.1A12 V[…]13-PE/APC clone MR12-3/MR12-4 (Biolegend), CD4-APCCy7 clone RM4-5, CD62L-APC clone MEL-14, KLRG1-APC/V450 clone 2F1 (BD). After 1 h, Monensin (BioLegend) was added per manufacturer's instructions. After surface staining, intracellular staining for cytokines and transcription factors was performed using Fixation and Permeabilization buffers (BioLegend) and Foxp3 Staining Buffers (eBioscience), respectively. Flow cytometry acquisition was performed on a FACSVerse or Accuri (BD Bioscience). Data were analyzed with FlowJo software (TreeStar). For experiments with sorted cells, CD8^+Vb13^+ T cells were sorted from pmel-1 cultures using Dynabeads untouched mouse CD8^+ T cell kit (Invitrogen) and a FACSAria cell sorting machine (BD Biosciences).

[2] = tested on: ICOS-stimulated Th17 cells; assay: Growth and survival of ICOS-stimulated Th17 cells expanded with inhibitors; conditions: in vitro expansion, day 7
Description: as §1, with “TRP-1” left out

Wnt/β-catenin pathway = Wnt/β-catenin pathway expression in Th17 cells (Western blot, real-time PCR)
Description: Total RNA isolation was performed using the Trizol method (Life Technologies) according to the manufacturer's procedure. RNA quantity and purity was assessed using a NanoDrop ND-1000. 1 μg total RNA was transcribed with Transcriptor First Strand cDNA Synthesis Kit (Roche). qReal-time PCR was performed on LightCycler480 machine following manufacturer's protocols (Roche). Probes utilized include Rorc, IL-17, Cmaf IL-21, Cpt-1a, Tcf-7, Lef-1, Cnnb1. All probes are commercially available (ABI). Relative gene expression was determined by the comparative CT method (45). β-actin was used as housekeeping gene.
Nuclear and cytoplasmic protein were isolated by lysis using Nuclear and Cytoplasmic Extraction Reagent with Protease&Phosphatase Inhibitor Cocktail (ThermoScientific). Protein concentration was quantified using […] (ThermoScientific) according to the manufacturer's instructions. 10 to 30 μg of total protein was separated on a Mini-PROTEAN TGX, Any kD™ gel, followed by transfer onto PVDF membrane (Bio-Rad). The membranes were blocked with 5% BSA in TBS buffer containing 0.5% Tween20. The membranes were then incubated overnight at 4° C. with the primary antibodies to β-catenin (BD Bioscience), p110δ, Tcf7 (Abcam), RORγt (Affymetrix) phospho-Akt, total-Akt, STAT-3, Histone-3, Lef1 (abcam), and GAPDH (Cell Signaling) at the concentration recommended by manufactures. Subsequently, membranes were washed and incubated for 1 h at room temperature with (HRP)-conjugated goat antibodies to mouse or rabbit IgG (Cell Signaling). For detection of protein, chemiluminescence method was performed using Western ECL Blotting Substrate (Bio-Rad) followed by X-ray film-based imaging method (ThermoScientific). Quantification of optical density performed using Fiji analysis software (NIH).

[3] = CAL-101 10 μM, Indo 60 μM, Ly294002 10 μM

COc1ccc2c(c1)c(CC(=O)O)c(C)n2C(=O)c1ccc(Cl)cc1 [Indo, indomethacin]
IFN-γ production [1, 3]: did not impact | IL-17A production [1, 3]: did not impact | IL-22 production [1]: increased | TNF-α production [1]: increased | Th17 cell growth or survival [2]: did not impair | nuclear β-catenin after re-stimulation (Wnt/β-catenin pathway; antigen specific re-stimulation in vitro): re-expressed β-catenin to the level observed in un-treated ICOS stimulated Th17 cells | nuclear β-catenin expression (Wnt/β-catenin pathway; day 8, before re-stimulation / transfer): abolish β-catenin translocation to the nucleus
